The nature of this series: method code SF-GLC, from DOI: 10.1002/qsar.19850040403. To be noted: pH 13.0.
For orientation: logD means the decadic logarithm of the distribution of all forms, ionised or not, between an organic phase and buffer at a given pH. High values mean higher lipophilicity, low ones lower lipophilicity. In turn, `CCCNC(C)CC` (centres undefined) registered a logD of 1.91.

The compound `CCCCNCCC` registered a log distribution coefficient (logD) of 2.12.

Compound `C=CCNCC` yielded a logD of 0.81.

The compound `CCCNCC(C)C` came in with a logD of 2.07.

In turn, `C1CCNC1` gave a logD of 0.46.

The compound `CCCCC(CC)CN` (centres undefined) had a pH-dependent lipophilicity (logD) of 2.82.

As for `CCCN(CCC)CCC`, the logD was determined as 2.79.

`CCN(CC)CC(F)(F)F` came in with a logD of 1.88.

Consider `CCCN(C)CC(F)(F)F`, for which the logD was 2.18.

Compound `CCCN(CC)CCC` displayed a logD of 2.68.

`CCNC`: the pH-dependent lipophilicity (logD) was 0.15.

Consider `CN(C)CC(F)(F)F`, for which the logD came out at 1.06.

Compound `CCCCCCCN` registered a logD of 2.57.

Compound `CCNCC(F)(F)F` came in with a logD of 0.74.

In turn, `CNCC(F)(F)F` yielded a logD of 0.55.

Take `C=CCNCCC`: the logD turned out to be 1.33.

As to `NCC(F)(F)F`, the logD was 0.24.

In the case of `CCN(C)C`, the logD was 0.7.

The compound `CCNC(C)C` gave a logD of 0.93.

Compound `CC(C)N` returned a logD of 0.26.

Take `CC(C)CN`: the logD was 0.73.

In the case of `C1CN2CCC1CC2`, the logD was 1.38.

As for `CCCN(CC)CC(F)(F)F`, the logD amounted to 2.38.

Compound `CCCCCN` returned a logD of 1.49.
